The values below come from ChEMBL document CHEMBL5543126, “Combinatorial Ubiquitination REal-time PROteolysis (CURE-PROs): A Modular Platform for Generating Reversible, Self-Assembling Bifunctional Targeted Degraders” (J Med Chem, 2024).

The source made the active and inactive calls.

The target in data set [1] is T1, von Hippel-Lindau disease tumor suppressor/Bromodomain-containing protein 4 (Homo sapiens, UniProt O60885+P40337). Description: PROTAC activity at BRD4/VHL in human MCF7 cells assessed as induction of BRD4 degradation by measuring residual activity at 3 uM incubated for 24 hrs by Western blot analysis. Format: cell-based. (In general: In western blotting, separated proteins are transferred to a membrane and probed.)

Data set [2] in a line: Metabolic stability in C57BL/6 mouse liver microsome at 1 uM measured upto 60 mins in presence of NADPH/UDPGA by LC-MS/MS analysis. Format: ADME, microsomes.
Data set [3] can be described thus: Metabolic stability in human liver microsome at 1 uM measured upto 60 mins in absence of NADPH/UDPGA by LC-MS/MS analysis. The class given is ADME. The conditions noted are these: liver microsomes, read-out: Stability. (In general: Microsomes from liver hold many membrane-bound enzymes, among them those of drug oxidation.)
The nature of data set [4]: Tmax in C57BL/6 mouse at 10 mg/kg, ip measured upto 24 hrs by LC-MS/MS analysis. Format: ADME, organism-based. The conditions noted are these: in vivo.
A short description of data set [5]: Metabolic stability in C57BL/6 mouse liver microsome at 1 uM measured upto 60 mins in absence of NADPH/UDPGA by LC-MS/MS analysis. The class given is ADME. The conditions noted are these: liver microsomes, read-out: Stability.
For data set [6], the target named is T1, von Hippel-Lindau disease tumor suppressor/Bromodomain-containing protein 4. The experiment in a line: PROTAC activity at BRD4/VHL in human MCF7 cells assessed as induction of BRD4 degradation by measuring residual activity at 10 uM incubated for 24 hrs in presence of 1 uM VHL based ligand (2S,4R)-1-((S)-2-(2,3-dihydroxybenzamido)-3,3-dimethylbutanoyl)-4-hydroxy-N-(4-(4-methylthiazol-5-yl)benzyl)pyrrolidine-2-carboxamide by Western blot based Combinatorial Ubiquitination Real-time PROteolysis analysis. The class given is cell-based.

Data set [7] can be described thus: Half life in C57BL/6 mouse at 10 mg/kg, ip measured upto 24 hrs by LC-MS/MS analysis. The following applies: in vivo. The class given is ADME, organism-based.
For data set [8], the target named is T1, von Hippel-Lindau disease tumor suppressor/Bromodomain-containing protein 4. Description: PROTAC activity at BRD4/VHL in human MCF7 cells assessed as induction of BRD4 degradation by measuring residual activity at 1 uM incubated for 24 hrs by Western blot analysis. The class given is cell-based.
A short description of data set [9]: Metabolic stability in C57BL/6 mouse liver microsome assessed as half life at 1 uM measured upto 60 mins by LC-MS/MS analysis. The class given is ADME, microsomes.
Data set [10] concerns the target T1, von Hippel-Lindau disease tumor suppressor/Bromodomain-containing protein 4. The experiment in a line: PROTAC activity at BRD4/VHL in human MCF7 cells assessed as induction of BRD4 degradation by measuring residual activity at 100 nM incubated for 24 hrs by Western blot analysis. Format: cell-based.
A short description of data set [11]: Metabolic stability in human liver microsome at 1 uM measured upto 60 mins in presence of NADPH/UDPGA by LC-MS/MS analysis. The class given is ADME. The following applies: liver microsomes, read-out: Stability.
Data set [12] concerns the target T1, von Hippel-Lindau disease tumor suppressor/Bromodomain-containing protein 4. Description: PROTAC activity at BRD4/VHL in human MCF7 cells assessed as induction of BRD4 degradation by measuring residual activity at 30 nM incubated for 24 hrs by Western blot analysis. Format: cell-based.
Data set [13] shares this target. The experiment in a line: PROTAC activity at VHL/BRD4 in HEK293 cells assessed as induction of BRD4 degradation by measuring Tmax at 10 uM measured every 15 mins for 24 hrs in presence of VHL based ligand (2S,4R)-1-((S)-2-(2,3-dihydroxybenzamido)-3,3-dimethylbutanoyl)-4-hydroxy-N-(4-(4-methylthiazol-5-yl)benzyl)pyrrolidine-2-carboxamide by HiBiT based Combinatorial Ubiquitination Real-time PROteolysis analysis. The class given is cell-based. A general note: The HiBiT peptide binds its large partner to form an active luciferase.

The target of data set [14] is Protein cereblon/Bromodomain-containing protein 4 (Homo sapiens) (UniProt O60885+Q96SW2). Description: PROTAC activity at BRD4/CRBN in human HeLa cells assessed as induction of BRD4 degradation at 10 uM incubated for 24 hrs in presence of CRBN based ligand N-((2-(2,6-dioxopiperidin-3-yl)-1,3-dioxoisoindolin-4-yl)methyl)-3,4-dihydroxybenzamide by Western blot analysis based Combinatorial Ubiquitination Real-time PROteolysis analysis. Format: cell-based.

The nature of data set [15]: AUClast in C57BL/6 mouse at 10 mg/kg, ip measured upto 24 hrs by LC-MS/MS analysis. The class given is ADME, organism-based. The following applies: in vivo.
In data set [16] the target is T1, von Hippel-Lindau disease tumor suppressor/Bromodomain-containing protein 4. Description: PROTAC activity at VHL/BRD4 in HEK293 cells assessed as induction of BRD4 degradation by measuring Tmax at 3 uM measured every 15 mins for 24 hrs in presence of VHL based ligand (2S,4R)-1-((S)-2-(2,3-dihydroxybenzamido)-3,3-dimethylbutanoyl)-4-hydroxy-N-(4-(4-methylthiazol-5-yl)benzyl)pyrrolidine-2-carboxamide by HiBiT based Combinatorial Ubiquitination Real-time PROteolysis analysis. The class given is cell-based.

Data set [17] has the same target. The experiment in a line: PROTAC activity at VHL/BRD4 in HEK293 cells assessed as induction of BRD4 degradation by measuring degradation rate at 0.3 uM measured every 15 mins for 24 hrs in presence of VHL based ligand (2S,4R)-1-((S)-2-(2,3-dihydroxybenzamido)-3,3-dimethylbutanoyl)-4-hydroxy-N-(4-(4-methylthiazol-5-yl)benzyl)pyrrolidine-2-carboxamide by HiBiT based Combinatorial Ubiquitination Real-time PROteolysis analysis. The class given is cell-based.

The target is the same in data set [18]. Description: PROTAC activity at BRD4/VHL in human MCF7 cells assessed as induction of BRD4 degradation by measuring residual activity at 300 nM incubated for 24 hrs by Western blot analysis. The class given is cell-based.
The target is the same in data set [19]. The experiment in a line: PROTAC activity at BRD4/VHL in human MCF7 cells assessed as induction of BRD4 degradation by measuring residual activity at 3 uM incubated for 24 hrs in presence of 3 uM VHL based ligand (2S,4R)-1-((S)-2-(2,3-dihydroxybenzamido)-3,3-dimethylbutanoyl)-4-hydroxy-N-(4-(4-methylthiazol-5-yl)benzyl)pyrrolidine-2-carboxamide by Western blot based Combinatorial Ubiquitination Real-time PROteolysis analysis. The class given is cell-based.

Data set [20] is described as follows: Metabolic stability in human liver microsome assessed as half life at 1 uM measured upto 60 mins by LC-MS/MS analysis. The class given is ADME. The following applies: liver microsomes.
The nature of data set [21]: Cmax in C57BL/6 mouse at 10 mg/kg, ip measured upto 24 hrs by LC-MS/MS analysis. Format: ADME, organism-based. The following applies: in vivo.
The target in data set [22] is T1, von Hippel-Lindau disease tumor suppressor/Bromodomain-containing protein 4. Description: PROTAC activity at VHL/BRD4 in HEK293 cells assessed as induction of BRD4 degradation by measuring maximal level of degradation at 3 uM measured every 15 mins for 24 hrs in presence of VHL based ligand (2S,4R)-1-((S)-2-(2,3-dihydroxybenzamido)-3,3-dimethylbutanoyl)-4-hydroxy-N-(4-(4-methylthiazol-5-yl)benzyl)pyrrolidine-2-carboxamide by HiBiT based Combinatorial Ubiquitination Real-time PROteolysis analysis. The class given is cell-based.

The target is the same in data set [23]. The experiment in a line: PROTAC activity at BRD4/VHL in human MCF7 cells assessed as induction of BRD4 degradation by measuring residual activity at 10 uM incubated for 24 hrs by Western blot analysis. The class given is cell-based.
Data set [24] shares this target. Description: PROTAC activity at VHL/BRD4 in HEK293 cells assessed as induction of BRD4 degradation by measuring degradation rate at 3 uM measured every 15 mins for 24 hrs in presence of BRD4 based ligand ((4S)-6-(4-chlorophenyl)-4-(2-(ethylamino)-2-oxoethyl)-1-methyl4Hbenzo[f][1,2,4]triazolo [4,3-a][1,4]diazepin-8-yl)boronic acid by HiBiT based Combinatorial Ubiquitination Real-time PROteolysis analysis. Format: cell-based.

T1 sequence (P40337 whole entry, looked up, other chains not shown): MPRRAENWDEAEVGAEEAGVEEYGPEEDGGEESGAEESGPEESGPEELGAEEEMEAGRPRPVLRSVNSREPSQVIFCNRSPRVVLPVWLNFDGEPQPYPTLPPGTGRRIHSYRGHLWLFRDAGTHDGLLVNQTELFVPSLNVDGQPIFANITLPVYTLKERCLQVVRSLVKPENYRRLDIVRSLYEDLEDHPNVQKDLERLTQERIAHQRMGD
Chain of Protein cereblon/Bromodomain-containing protein 4 (Homo sapiens) (Q96SW2 whole entry, looked up, other chains not shown): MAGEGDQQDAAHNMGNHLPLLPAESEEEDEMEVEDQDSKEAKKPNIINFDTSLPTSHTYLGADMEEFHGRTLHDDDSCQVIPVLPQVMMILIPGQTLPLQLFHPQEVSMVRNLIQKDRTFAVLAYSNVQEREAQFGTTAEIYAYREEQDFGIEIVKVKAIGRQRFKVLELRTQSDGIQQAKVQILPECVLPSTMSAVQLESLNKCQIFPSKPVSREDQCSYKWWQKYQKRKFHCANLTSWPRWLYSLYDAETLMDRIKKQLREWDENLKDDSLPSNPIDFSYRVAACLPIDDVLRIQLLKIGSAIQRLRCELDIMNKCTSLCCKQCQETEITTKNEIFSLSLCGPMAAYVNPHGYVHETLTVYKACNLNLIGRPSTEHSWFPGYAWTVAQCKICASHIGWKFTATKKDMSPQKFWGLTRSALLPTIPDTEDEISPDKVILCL

Consider `CCNC(=O)C[C@@H]1N=C(c2ccc(Cl)cc2)c2cc(B(O)O)ccc2-n2c(C)nnc21`, for which the Activity in [1] is 71%; in [6], 21%; in [8], 91%; in data set [10], 121%; in [12], 116%; in [17] it was 0.144 h⁻¹. The Activity in [18] came to 147%; in data set [19] it was 16%; in [23], 68%. For the same molecule, in data set [2] (mouse, microsomes, 1 h, 1 µM), the Stability came to 112%. Besides, the remaining at 1 h, 1 µM amounted to 101% in data set [3], 100% in data set [5] and 107% in data set [11]. Also, the Tmax in data set [4] came out at 0.5 h; in data set [13] it was 22.2 h; in data set [16] it was 18 h. Also, the half-life in [7] was 6.3 h. In addition, the t1/2 in data set [9] (mouse, microsomes, 1 h, 1 µM) was found to be 0.483 h. In addition, the result in data set [14] was inactive. In addition, the AUC(0-t) at 24 h in data set [15] came out at 1860 ng·h/mL. Also, the half-life at 1 µM in [20] is more than 1 h. The molecule further showed a Cmax in data set [21] of 1480 ng/mL. Moreover, in data set [22], the Emax turned out to be 93%.
Consider `Cc1ncsc1-c1ccc(CNC(=O)[C@@H]2C[C@@H](O)CN2C(=O)[C@@H](NC(=O)c2cccc(O)c2O)C(C)(C)C)cc1`, for which the Activity in data set [24] was 0.908 h⁻¹; in [1], 113%; in data set [8], 92%; in [10] it was 108%; in [12] it was 102%; in [18] it was 86%. In addition, in data set [23], the Activity turned out to be 95%. For the same molecule, the remaining at 1 h, 1 µM in data set [2] (C57BL/6, mouse, liver microsomes, read-out: Stability) was 24%; in [3], 87%; in data set [5] it was 83%; in data set [11], 73%. The Tmax in data set [4] worked out at 0.5 h. Further, the half-life in [7] is 6.3 h. In addition, the half-life at 1 µM in data set [9] (C57BL/6, mouse, liver microsomes) is more than 1 h; in data set [20], more than 1 h. Further, the AUC(0-t) at 24 h in data set [15] stood at 2340 ng·h/mL. In addition, the Cmax in data set [21] was 1570 ng/mL.

The term half-life denotes the time needed for the level to fall by half in the phase considered. A word on the AUC(0-t): it is the area under the concentration-time curve up to a stated or last time point. Read a high AUC(0-t) as more exposure. What is called Cmax is the highest concentration seen after dosing. The term Emax denotes the greatest response seen or fitted, relative to the assay's reference.
